# Laboratory results: PubChem BioAssay (NCI)
# “And” between values parts separate entries of the source, which are not always exact repeats. Identical values can stand only once.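 Step 1: Grow cells in 96-well plates. Step 2: Expose to compound for 48 hours at 5 concentrations. Step 3: Interpolate endpoints linearly; if unreached, use highest concentration. Here, GI50 denotes the concentration required for 50% inhibition of growth. TGI marks complete inhibition of growth.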
# What was measured:
# Assay in all cases: NCI anticancer screen, dose series, 48 h
# [1] = test system: A498 renal
# [2] = test system: COLO 205 colon
# [3] = test system: M14 melanoma
# [4] = test system: MALME-3M melanoma
# [5] = test system: MDA-MB-231 breast
# [6] = test system: NCI-H522 lung
# [7] = test system: SN12C renal
# [8] = test system: SNB-19 CNS
# [9] = test system: U251 CNS
# [10] = test system: UACC-257 melanoma
Structure (SMILES),GI50 [1],TGI [1],GI50 [2],TGI [2],GI50 [3],TGI [3],GI50 [4],TGI [4],GI50 [5],TGI [5],GI50 [6],TGI [6],GI50 [7],TGI [7],GI50 [8],TGI [8],GI50 [9],TGI [9],GI50 [10],TGI [10]
N#CC(C#N)N=Nc1ccc(Br)cc1,13.3 µM,46.1 µM,1.43 µM,3.25 µM,3.33 µM,16.8 µM,1.35 µM,10.4 µM,1.69 µM,7.04 µM,0.543 µM,3.41 µM,2.64 µM,9.51 µM,27.5 µM,> 100 µM,16.2 µM,> 100 µM,2.12 µM,7.54 µM
Nc1ncnc2c1c(-c1cccc(OCc3ccccc3)c1)cn2C1CC(CN2CCC2)C1 (centres undefined),1.74 µM and 1.24 µM,5.59 µM and 6.85 µM,0.262 µM and 0.245 µM,1.55 µM and 1.29 µM,1.59 µM and 1.65 µM,3.28 µM and 3.55 µM,0.433 µM and 1.33 µM,1.96 µM and 3.04 µM,2.12 µM and 3.82 µM,6.14 µM and > 10 µM,2.18 µM and 7.48 µM,5.92 µM and > 10 µM,4.59 µM and 5.75 µM,18 µM and > 10 µM,6.37 µM and 7.05 µM,20.5 µM and > 10 µM,1.82 µM and 3 µM,3.94 µM and > 10 µM,0.559 µM and 1.13 µM,2.1 µM and 2.41 µM
COc1cc2c(cc1OC)C(OC)N(C)c1c-2ccc2cc3c(cc12)OCO3 (centres undefined),–,1.83 µM,–,2.95 µM,–,25.6 µM,–,20 µM,–,5.16 µM,–,0.766 µM,–,21.1 µM,–,> 75 µM,–,1.75 µM,–,50.2 µM
O=[N+]([O-])/C=C/c1cc2ccccc2[nH]1,–,34.4 µM,–,32.7 µM,–,28.5 µM,–,59.8 µM,–,36.9 µM,–,24.2 µM,–,37.2 µM,–,34.7 µM,–,25.8 µM,–,29.6 µM
O=C(O)CCC/C=C\C[C@H]1C=CC(=O)/C1=C/C[C@@H](O)CCc1cccc(C(F)(F)F)c1,2.13 µM,4.06 µM,2.26 µM,5.49 µM,2 µM,6.76 µM,4.75 µM,19.3 µM,5.19 µM,21.9 µM,1.35 µM,3.8 µM,3.41 µM,26.8 µM,2.01 µM,4.8 µM,1.55 µM,3.45 µM,2.36 µM,7.38 µM
COc1ccc(-c2nc(C(=O)c3ccccc3)n(CC(=O)c3ccccc3)c2-c2ccc(OC)cc2)cc1,> 100 µM,> 100 µM,> 100 µM,> 100 µM,> 100 µM,> 100 µM,> 100 µM,> 100 µM,> 100 µM,> 100 µM,> 100 µM,> 100 µM,> 100 µM,> 100 µM,> 100 µM,> 100 µM,> 100 µM,> 100 µM,> 100 µM,> 100 µM
CC(=O)O[C@@H]1[C@@H](O)C2=C3[C@]4(C)[C@@H]1C(C)(C)C(=O)C[C@@H]4[C@]3(O)[C@H](OC(C)=O)[C@@]1(C[C@@H]1C)C2=O,–,45.8 µM,–,34.2 µM,–,91.9 µM,–,29.3 µM,–,37.7 µM,–,19.2 µM,–,37.1 µM,–,61.5 µM,–,40.6 µM,–,37.2 µM
CCn1cc(-c2ccnc3[nH]ccc23)c(-c2cccc(NC(=O)Nc3ccc(OCc4ccccc4)cc3)c2)n1,7.64 µM,> 25 µM,11.2 µM,> 25 µM,14.4 µM,> 25 µM,> 22.6 µM,> 25 µM,6.57 µM,> 25 µM,2.98 µM,> 25 µM,> 25 µM,> 25 µM,> 23.9 µM,> 25 µM,4.75 µM,> 25 µM,> 24.1 µM,> 25 µM
C[C@@H](CN1CC(=O)NC(=O)C1)N1CC(=O)NC(=O)C1,–,698 µM,–,296 µM,–,1160 µM,–,1100 µM,–,679 µM,–,518 µM,–,906 µM,–,1370 µM,–,839 µM,–,2390 µM
O=C(O)c1cc2ccccc2oc1=O,–,> 100 µM,–,> 100 µM,–,> 100 µM,–,> 100 µM,–,> 100 µM,–,> 100 µM,–,> 100 µM,–,> 100 µM,–,> 100 µM,–,> 100 µM
CCCCCCCCCc1cc[n+](CC(=O)c2ccc([N+](=O)[O-])cc2)cc1,1.26 µM,3.14 µM,0.344 µM,1.45 µM,0.553 µM,2.14 µM,1.41 µM,3.03 µM,0.447 µM,1.7 µM,1.36 µM,2.87 µM,0.581 µM,1.9 µM,0.478 µM,1.8 µM,0.457 µM,1.76 µM,1.47 µM,3.2 µM
CN1C(=O)[C@@H](NC(=O)[C@H](CCC(F)(F)F)[C@H](CCC(F)(F)F)C(N)=O)N=C(c2ccccc2)c2ccccc21,47.7 µM,> 100 µM,87.5 µM,> 100 µM,50.9 µM,> 100 µM,> 100 µM,> 100 µM,43.7 µM,> 100 µM,85.2 µM,> 100 µM,> 100 µM,> 100 µM,> 100 µM,> 100 µM,> 100 µM,> 100 µM,67.7 µM,> 100 µM
Clc1ccc(C2=Nn3c(nnc3-c3cc(Cl)cc(Cl)c3Cl)SC2)cc1,31.1 µM,> 100 µM,52.8 µM,> 100 µM,29 µM,> 100 µM,10.5 µM,29.2 µM,23.3 µM,97.1 µM,12.7 µM,46.2 µM,75 µM,> 100 µM,15.6 µM,36.2 µM,12.7 µM,28.3 µM,33.2 µM,> 100 µM
O=c1c(O)cccc2cc(O)c(O)c(O)c12,4.16 µM,> 100 µM,> 100 µM,> 100 µM,30.6 µM,> 100 µM,4.99 µM,> 100 µM,7.5 µM,> 100 µM,3.63 µM,14.5 µM,57.4 µM,> 100 µM,8.44 µM,> 100 µM,6.03 µM,> 100 µM,5.84 µM,> 100 µM
N#CSc1c[nH]c2ccc(/C=C/C(=O)/C=C(/C=C/c3ccc4[nH]cc(SC#N)c4c3)OB(F)F)cc12,3.24 µM,12.3 µM,0.652 µM,3.52 µM,0.374 µM,1.68 µM,0.261 µM,0.845 µM,0.917 µM,2.34 µM,0.212 µM,0.653 µM,0.442 µM,3.13 µM,3.32 µM,14.7 µM,1.04 µM,2.99 µM,2.82 µM,33.6 µM
CCN(CC)c1ccc2c(c1)Oc1nc(N)c(C#N)c(N)c1C2Sc1ccc(OC)cc1 (centres undefined),2.29 µM,4.14 µM,1.88 µM,3.65 µM,1.77 µM,3.33 µM,1.82 µM,3.45 µM,1.6 µM,3.13 µM,1.79 µM,3.38 µM,–,–,1.8 µM,3.26 µM,1.42 µM,2.81 µM,1.98 µM,3.48 µM
COC1=CC(=O)C(OC)=C(OC)C1=O,> 100 µM,> 100 µM,15.1 µM,29 µM,15.6 µM,29.7 µM,18 µM,35.6 µM,2.33 µM,5.13 µM,3.21 µM,17.4 µM,15.1 µM,28.8 µM,21.5 µM,52.8 µM,15.1 µM,29.3 µM,14.2 µM,27.7 µM
CC(C)CC(=O)Nc1n[nH]c2c1CN(C(=O)C1CCN(C)CC1)C2(C)C,2.34 µM,> 10 µM,0.331 µM,2.19 µM,2.24 µM,> 10 µM,6.95 µM,> 10 µM,0.894 µM,> 10 µM,0.467 µM,3.99 µM,1.27 µM,> 10 µM,1.05 µM,> 10 µM,0.439 µM,> 10 µM,1.19 µM,> 10 µM
Nc1ccccc1NC(=O)c1ccc(CCCC(=O)Nc2ccc(C3CC3N)cc2)cc1 (centres undefined),0.747 µM,2.74 µM,0.765 µM,2.89 µM,2.01 µM,15.4 µM,0.559 µM,7.2 µM,2.77 µM,48 µM,0.673 µM,5.12 µM,3.62 µM,> 100 µM,3.81 µM,> 100 µM,1.34 µM,4.06 µM,–,–
COc1ccc(/C=C2\CC(C)CC3C2=NN(C(C)=O)C3c2ccc(OC)cc2)cc1 (centres undefined),17 µM,33.1 µM,25.7 µM,92.5 µM,–,–,17.8 µM,37.9 µM,16.4 µM,35.7 µM,21.5 µM,83.9 µM,18.4 µM,38.7 µM,27.6 µM,> 100 µM,14.4 µM,31 µM,19.8 µM,45 µM
